Assay results reported in patent US8809542B2, “Salts of benzimidazole compound and use thereof” (Takeda Pharmaceutical Company Limited, priority 2000, dated 2014).

Assay: Storage stability of the crystal in a hermetically sealed glass bottle, content (residual percentage) by HPLC
Format: physicochemical
Conditions: for description: appearance
Procedure: The crystal of a sodium salt obtained in Example 1 (about 5 mg) was served into a colorless glass bottle, the bottle was hermetically sealed by a stopper, and stability of the crystal during storage at 60° C. for 4 weeks was examined. 25 ml of a sample (concentration: about 0.2 mg/ml) was prepared by dissolving the sample after completion of storage in a mobile phase. The sample solution along with a standard solution prepared by using the initial lot (a frozen sample stored for the same term), was analyzed under the HPLC conditions shown below, and the content (residual percentage) was calculated from the peak area obtained.
[HPLC Analytical Conditions]
Detection wavelength: UV 275 nm
Mobile phase: Fluid prepared by adding phosphoric acid to water/acetonitrile/triethylamine (63:37:1) to adjust pH 7
Column temperature: 40° C.
Sample injection volume: 10 μL

## Cc1c(OCC(F)(F)F)ccnc1C[S@@+]([O-])c1nc2ccccc2[n-]1.[Na+] [Example 1, sodium salt of (R)-2-[[[3-methyl-4-(2,2,2-trifluoroethoxy)-2-pyridinyl]methyl]sulfinyl]-1H-benzimidazole]
freeze-storage for the same term (initial lot used as standard)
  content (residual percentage): [100] %
freeze-storage
  description: nearly white
Solid crystal stored at 60° C. (airtight) for 4 weeks, HPLC peak area vs frozen initial lot, listed as crystal of Ex. 1
  content (residual percentage): 99.2%
Solid crystal stored at 60° C. (airtight) for 4 weeks, HPLC peak area vs frozen initial lot, listed as crystal of a sodium salt of R(+)-lansoprazole
  content (residual percentage): exceeding 99%
Solid crystal stored at 60° C. (airtight) for 4 weeks
  description: nearly white
